For 3 compounds, inhibition and IC50 results are on record in patent US8426437B2, “Pyrroloquinoline derivatives and their use as protein kinases inhibitors” (Pierre Fabre Medicament, priority 2005, dated 2013).

The target in test [1] is T1, Aurora-A (h) (Homo sapiens, UniProt O14965).
T1 construct: purchased Upstate
T1 sequence (O14965 1-403): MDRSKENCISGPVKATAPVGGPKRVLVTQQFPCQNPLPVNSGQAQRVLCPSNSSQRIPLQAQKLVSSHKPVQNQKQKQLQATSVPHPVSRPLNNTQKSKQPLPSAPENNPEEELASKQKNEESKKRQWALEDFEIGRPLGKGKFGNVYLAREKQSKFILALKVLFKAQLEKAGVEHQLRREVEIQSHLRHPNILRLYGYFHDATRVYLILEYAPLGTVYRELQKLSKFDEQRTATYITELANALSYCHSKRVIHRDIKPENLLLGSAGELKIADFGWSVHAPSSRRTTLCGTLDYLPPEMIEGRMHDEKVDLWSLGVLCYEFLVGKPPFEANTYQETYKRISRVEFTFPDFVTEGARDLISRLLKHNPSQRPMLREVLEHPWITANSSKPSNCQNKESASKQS
In words: Upstate kinase panel: Aurora-A. The class given is biochemical. On the procedure:
(§1) These kinases are produced by Upstate and screened according to the respective protocols indicated by the supplier (http://www.upstate.com/features/kp_protocols.asp). Examples 1, 12, 166 and 238 were tested at a concentration of 20 μM, 10 μM, 1 μM and 1 μM respectively in the presence of 10 μM of ATP for examples 1 and 12 and at the concentrations of ATP shown in parentheses for examples 166 and 238. The results shown in Table VII correspond to percentage inhibition of the kinase tested in the presence of the compound, relative to a control effected without the compound.

The target of test [2] is T2, c-RAF (h) (Homo sapiens, UniProt P04049, Y340D/Y341D).
T2 construct: purchased Upstate
T2 sequence (P04049 306-648 Y340D/Y341D limits assumed): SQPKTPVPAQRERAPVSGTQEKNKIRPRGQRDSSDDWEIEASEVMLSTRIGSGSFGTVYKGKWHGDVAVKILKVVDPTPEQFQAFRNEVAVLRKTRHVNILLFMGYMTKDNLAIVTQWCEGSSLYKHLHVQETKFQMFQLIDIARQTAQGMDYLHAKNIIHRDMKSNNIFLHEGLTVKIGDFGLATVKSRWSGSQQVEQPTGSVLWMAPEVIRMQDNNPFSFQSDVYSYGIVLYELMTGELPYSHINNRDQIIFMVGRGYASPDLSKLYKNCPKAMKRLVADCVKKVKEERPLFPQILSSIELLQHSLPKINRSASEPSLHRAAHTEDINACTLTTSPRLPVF
As to the kind of experiment: Upstate kinase panel: c-RAF. The format is biochemical. On the procedure:
as §1

Test [3] addresses T3, CDK2/cyclinE (h) (Homo sapiens, UniProt P24941).
T3 construct: purchased Upstate
In words: Upstate kinase panel: CDK2/cyclinE. The format is biochemical. As to conditions: 10 μM ATP. On the procedure:
as §1

Test [4] has as its target T4, cSRC (h) (Homo sapiens, UniProt P12931).
T4 construct: purchased Upstate
In words: Upstate kinase panel: cSRC. The class given is biochemical. On the procedure:
as §1

Test [5] deals with T5, FGFR2 (h) (Homo sapiens, UniProt P21802).
T5 construct: purchased Upstate
In words: Upstate kinase panel: FGFR2. The format is biochemical. As to conditions: 10 μM ATP. On the procedure: as §1

For test [6], the target named is T6, Flt3 (h) (Homo sapiens, UniProt P36888).
T6 construct: purchased Upstate
T6 sequence (P36888 27-993): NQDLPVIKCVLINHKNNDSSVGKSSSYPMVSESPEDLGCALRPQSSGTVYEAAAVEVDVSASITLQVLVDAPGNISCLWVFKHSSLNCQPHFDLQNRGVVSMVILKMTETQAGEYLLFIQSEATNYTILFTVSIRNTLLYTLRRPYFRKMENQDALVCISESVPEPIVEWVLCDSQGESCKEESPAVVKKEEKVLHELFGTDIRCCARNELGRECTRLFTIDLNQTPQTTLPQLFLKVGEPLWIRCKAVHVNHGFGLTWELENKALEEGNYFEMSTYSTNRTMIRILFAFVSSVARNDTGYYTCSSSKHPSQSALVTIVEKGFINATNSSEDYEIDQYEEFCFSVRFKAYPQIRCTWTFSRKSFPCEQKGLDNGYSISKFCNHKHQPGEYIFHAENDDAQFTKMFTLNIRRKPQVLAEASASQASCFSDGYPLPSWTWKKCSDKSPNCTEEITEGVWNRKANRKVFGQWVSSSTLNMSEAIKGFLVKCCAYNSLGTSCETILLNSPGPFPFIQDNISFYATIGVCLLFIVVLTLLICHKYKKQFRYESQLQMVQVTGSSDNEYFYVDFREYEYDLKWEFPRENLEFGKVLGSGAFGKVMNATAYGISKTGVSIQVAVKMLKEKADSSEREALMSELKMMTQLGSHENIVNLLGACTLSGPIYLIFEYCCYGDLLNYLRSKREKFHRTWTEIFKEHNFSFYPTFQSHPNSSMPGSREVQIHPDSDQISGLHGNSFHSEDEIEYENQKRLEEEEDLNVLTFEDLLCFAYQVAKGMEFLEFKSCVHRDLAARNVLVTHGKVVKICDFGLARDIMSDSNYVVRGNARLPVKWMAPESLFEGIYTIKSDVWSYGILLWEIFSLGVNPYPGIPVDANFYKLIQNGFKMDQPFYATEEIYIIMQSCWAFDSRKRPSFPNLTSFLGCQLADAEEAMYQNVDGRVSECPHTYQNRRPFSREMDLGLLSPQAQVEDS
As to the kind of experiment: Upstate kinase panel: Flt3. The class given is biochemical. On the procedure: as §1

Test [7] concerns the target T7, IGF-1R (h) (Homo sapiens, UniProt P08069).
T7 construct: purchased Upstate
In words: Upstate kinase panel: IGF-1R. The class given is biochemical. The conditions noted are these: 10 μM ATP. On the procedure:
as §1

Test [8] concerns the target T8, MAPK2 (h) (Homo sapiens, UniProt P28482).
T8 construct: purchased Upstate
In words: Upstate kinase panel: MAPK2. The format is biochemical. On the procedure: as §1

For test [9], the target named is T9, PDGFRβ (h) (Homo sapiens, UniProt P09619).
T9 construct: purchased Upstate
T9 sequence (P09619 33-1106): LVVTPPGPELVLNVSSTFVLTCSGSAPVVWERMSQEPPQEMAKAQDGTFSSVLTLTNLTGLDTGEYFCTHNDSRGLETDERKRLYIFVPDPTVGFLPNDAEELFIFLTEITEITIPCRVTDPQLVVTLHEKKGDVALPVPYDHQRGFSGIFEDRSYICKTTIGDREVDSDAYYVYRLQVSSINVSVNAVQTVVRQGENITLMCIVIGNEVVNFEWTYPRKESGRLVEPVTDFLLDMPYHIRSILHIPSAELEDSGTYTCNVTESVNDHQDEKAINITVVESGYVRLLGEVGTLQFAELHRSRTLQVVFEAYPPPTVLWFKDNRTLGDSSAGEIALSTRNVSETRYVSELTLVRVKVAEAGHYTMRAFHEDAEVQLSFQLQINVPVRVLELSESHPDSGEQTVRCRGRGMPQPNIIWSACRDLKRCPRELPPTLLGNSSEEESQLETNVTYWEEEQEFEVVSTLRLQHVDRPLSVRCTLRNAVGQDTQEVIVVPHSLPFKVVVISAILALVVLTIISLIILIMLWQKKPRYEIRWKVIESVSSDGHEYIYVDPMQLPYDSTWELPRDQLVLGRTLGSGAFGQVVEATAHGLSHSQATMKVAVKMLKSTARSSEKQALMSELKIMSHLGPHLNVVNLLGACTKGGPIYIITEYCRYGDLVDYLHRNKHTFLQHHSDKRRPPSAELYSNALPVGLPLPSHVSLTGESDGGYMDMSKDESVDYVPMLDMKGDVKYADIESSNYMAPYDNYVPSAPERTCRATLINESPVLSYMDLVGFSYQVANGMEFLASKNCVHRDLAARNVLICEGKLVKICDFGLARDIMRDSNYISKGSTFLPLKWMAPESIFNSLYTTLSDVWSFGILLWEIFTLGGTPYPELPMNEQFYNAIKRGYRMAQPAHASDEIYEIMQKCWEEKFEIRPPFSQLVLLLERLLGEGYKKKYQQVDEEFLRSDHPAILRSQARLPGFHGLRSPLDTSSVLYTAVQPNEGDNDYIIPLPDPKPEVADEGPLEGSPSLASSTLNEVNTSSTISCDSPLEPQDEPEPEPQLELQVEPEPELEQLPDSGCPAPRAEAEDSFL
In words: Upstate kinase panel: PDGFRβ. The format is biochemical. On the procedure:
as §1

Test [10] concerns the target T10, ROCK-II (h) (Homo sapiens, UniProt O75116).
T10 construct: purchased Upstate
As to the kind of experiment: Upstate kinase panel: ROCK-II. The format is biochemical. On the procedure: as §1

Test [11] deals with T11, GSK3B (h) (Homo sapiens, UniProt P49841).
T11 construct: purchased Upstate
In words: Upstate kinase panel: GSK3B. The class given is biochemical. On the procedure: as §1

The target in test [12] is T12, FGFR1 (h) (Homo sapiens, UniProt P11362).
T12 construct: purchased Upstate
As to the kind of experiment: Upstate kinase panel: FGFR1. The format is biochemical. The conditions noted are these: compound 1 μM, ATP (200), read-out: % inhibition at 1 μMol. On the procedure:
as §1

Test [13] relates to H69. In words: WST test, inhibition of proliferation of H69. The class given is cell-based. As to conditions: Homo sapiens, NCI-H69, 96 h; line H69, tissue of origin Lung (SCLC); four days of incubation, WST-1. On the procedure:
(§2) The inhibition of the proliferation of cell lines by certain compounds of the invention was tested. […] In the example, the lines used were derived from cancers of the uterus, central nervous system, colon, stomach, head and neck, lung, breast, pancreas, and kidney, as well as from lymphoma, myeloma, pleura, or from melanoma.
(§3) The WST test for measuring cell proliferation and viability (Roche Applied Science) is based on cleavage of a tetrazolium salt by the mitochondrial dehydrogenases in viable cells.
(§4) After four days of incubation of the compounds with the cell line, 14 μl of WST-1 reagent is added to each well and the plates are incubated for four hours at 37° in humid atmosphere at 5% CO2. The level of formazan formed is then determined by spectrophotometry at 450 nm whereas a reference is measured at 650 nm. A control with untreated cells is represented by six wells per plate and the group of treated cells is produced in triplicate for each of the concentrations measured.
(§5) The compounds are tested at five concentrations between 10 nM and 100 μM and two cytotoxic agents are used as controls: adriamycin and 5-fluorouracil.
(Tetrazolium assays rely on reduction of a dye to a coloured formazan, in cell work by metabolically active cells.)

The test system of test [14] is RAJI. As to the kind of experiment: WST test, inhibition of proliferation of RAJI. The format is cell-based. As to conditions: Homo sapiens, 96 h; line RAJI, tissue of origin Lymphoma; four days of incubation, WST-1. On the procedure: as §2, §3, §4, §5
Where [15] appears, read: compound 20 μM, 10 μM ATP, read-out: % inhibition at 20 μMol.
[16] abbreviates: compound 20 μM, read-out: % inhibition at 20 μMol.
Setting [17] is: compound 10 μM, 10 μM ATP, read-out: % inhibition at 10 μMol.
[18] abbreviates: compound 10 μM, read-out: % inhibition at 10 μMol.
The mark [19] stands for this setting: compound 1 μM, ATP (15), read-out: % inhibition at 1 μMol.
Where [20] appears, read: compound 1 μM, ATP (200), read-out: % inhibition at 1 μMol.

Structures are written as SMILES.

T4 sequence (P12931 whole entry): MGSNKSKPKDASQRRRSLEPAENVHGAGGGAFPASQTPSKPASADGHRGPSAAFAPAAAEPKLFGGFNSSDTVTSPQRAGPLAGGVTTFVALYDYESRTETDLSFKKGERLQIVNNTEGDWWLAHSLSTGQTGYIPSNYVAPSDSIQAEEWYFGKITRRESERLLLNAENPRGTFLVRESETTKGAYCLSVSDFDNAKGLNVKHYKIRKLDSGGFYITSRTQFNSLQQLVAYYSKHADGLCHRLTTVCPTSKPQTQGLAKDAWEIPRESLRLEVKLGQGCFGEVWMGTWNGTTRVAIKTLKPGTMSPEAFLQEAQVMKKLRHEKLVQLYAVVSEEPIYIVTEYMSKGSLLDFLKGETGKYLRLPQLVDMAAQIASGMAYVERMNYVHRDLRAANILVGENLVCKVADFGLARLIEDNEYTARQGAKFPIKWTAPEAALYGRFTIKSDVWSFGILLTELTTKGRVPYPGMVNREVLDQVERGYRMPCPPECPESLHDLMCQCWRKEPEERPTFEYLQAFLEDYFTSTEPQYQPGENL
T10 sequence (O75116 whole entry): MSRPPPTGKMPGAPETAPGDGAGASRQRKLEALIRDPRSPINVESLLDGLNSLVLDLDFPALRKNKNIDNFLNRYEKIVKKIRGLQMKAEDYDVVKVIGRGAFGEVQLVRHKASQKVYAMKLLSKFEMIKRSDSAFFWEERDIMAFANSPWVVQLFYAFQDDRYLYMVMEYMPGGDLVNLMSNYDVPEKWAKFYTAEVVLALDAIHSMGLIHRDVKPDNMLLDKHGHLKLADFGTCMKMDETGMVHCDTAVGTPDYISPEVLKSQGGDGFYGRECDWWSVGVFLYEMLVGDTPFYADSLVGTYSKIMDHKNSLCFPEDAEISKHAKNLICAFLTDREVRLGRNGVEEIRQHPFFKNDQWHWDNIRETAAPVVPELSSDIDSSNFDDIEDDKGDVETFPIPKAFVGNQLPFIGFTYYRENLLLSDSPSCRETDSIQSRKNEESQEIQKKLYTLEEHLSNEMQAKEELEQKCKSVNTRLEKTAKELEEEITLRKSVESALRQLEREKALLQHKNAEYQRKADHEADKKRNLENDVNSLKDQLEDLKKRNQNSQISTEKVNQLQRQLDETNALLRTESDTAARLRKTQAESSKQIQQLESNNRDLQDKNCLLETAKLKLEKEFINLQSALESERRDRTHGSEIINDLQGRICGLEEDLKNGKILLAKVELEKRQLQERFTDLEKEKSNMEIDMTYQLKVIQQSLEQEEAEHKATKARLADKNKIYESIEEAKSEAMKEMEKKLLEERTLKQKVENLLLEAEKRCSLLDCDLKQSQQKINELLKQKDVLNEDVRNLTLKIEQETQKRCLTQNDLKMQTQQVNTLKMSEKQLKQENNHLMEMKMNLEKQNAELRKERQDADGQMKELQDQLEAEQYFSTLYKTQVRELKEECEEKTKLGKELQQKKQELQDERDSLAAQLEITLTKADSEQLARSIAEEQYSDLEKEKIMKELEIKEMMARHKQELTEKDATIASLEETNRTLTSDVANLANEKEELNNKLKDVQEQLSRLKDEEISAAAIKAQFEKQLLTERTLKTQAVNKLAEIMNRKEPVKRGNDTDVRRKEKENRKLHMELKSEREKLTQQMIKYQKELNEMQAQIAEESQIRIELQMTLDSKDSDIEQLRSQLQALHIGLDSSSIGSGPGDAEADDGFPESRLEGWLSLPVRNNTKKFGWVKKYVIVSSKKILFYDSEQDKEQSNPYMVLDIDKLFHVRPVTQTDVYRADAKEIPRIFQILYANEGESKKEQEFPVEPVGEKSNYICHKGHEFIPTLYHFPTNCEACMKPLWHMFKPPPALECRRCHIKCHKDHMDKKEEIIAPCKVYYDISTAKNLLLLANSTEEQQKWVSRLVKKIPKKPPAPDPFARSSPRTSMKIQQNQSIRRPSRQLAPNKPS
T8 sequence (P28482 whole entry): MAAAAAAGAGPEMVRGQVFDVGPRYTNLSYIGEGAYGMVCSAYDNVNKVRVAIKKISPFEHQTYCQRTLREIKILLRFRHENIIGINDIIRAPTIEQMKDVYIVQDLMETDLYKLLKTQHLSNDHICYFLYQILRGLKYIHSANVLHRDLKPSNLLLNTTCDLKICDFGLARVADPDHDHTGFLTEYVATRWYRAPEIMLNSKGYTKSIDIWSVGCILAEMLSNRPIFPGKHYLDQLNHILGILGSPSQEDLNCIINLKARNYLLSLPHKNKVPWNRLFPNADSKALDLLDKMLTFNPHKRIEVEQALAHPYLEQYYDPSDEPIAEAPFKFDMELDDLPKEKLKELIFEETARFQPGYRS
T7 sequence (P08069 31-1367): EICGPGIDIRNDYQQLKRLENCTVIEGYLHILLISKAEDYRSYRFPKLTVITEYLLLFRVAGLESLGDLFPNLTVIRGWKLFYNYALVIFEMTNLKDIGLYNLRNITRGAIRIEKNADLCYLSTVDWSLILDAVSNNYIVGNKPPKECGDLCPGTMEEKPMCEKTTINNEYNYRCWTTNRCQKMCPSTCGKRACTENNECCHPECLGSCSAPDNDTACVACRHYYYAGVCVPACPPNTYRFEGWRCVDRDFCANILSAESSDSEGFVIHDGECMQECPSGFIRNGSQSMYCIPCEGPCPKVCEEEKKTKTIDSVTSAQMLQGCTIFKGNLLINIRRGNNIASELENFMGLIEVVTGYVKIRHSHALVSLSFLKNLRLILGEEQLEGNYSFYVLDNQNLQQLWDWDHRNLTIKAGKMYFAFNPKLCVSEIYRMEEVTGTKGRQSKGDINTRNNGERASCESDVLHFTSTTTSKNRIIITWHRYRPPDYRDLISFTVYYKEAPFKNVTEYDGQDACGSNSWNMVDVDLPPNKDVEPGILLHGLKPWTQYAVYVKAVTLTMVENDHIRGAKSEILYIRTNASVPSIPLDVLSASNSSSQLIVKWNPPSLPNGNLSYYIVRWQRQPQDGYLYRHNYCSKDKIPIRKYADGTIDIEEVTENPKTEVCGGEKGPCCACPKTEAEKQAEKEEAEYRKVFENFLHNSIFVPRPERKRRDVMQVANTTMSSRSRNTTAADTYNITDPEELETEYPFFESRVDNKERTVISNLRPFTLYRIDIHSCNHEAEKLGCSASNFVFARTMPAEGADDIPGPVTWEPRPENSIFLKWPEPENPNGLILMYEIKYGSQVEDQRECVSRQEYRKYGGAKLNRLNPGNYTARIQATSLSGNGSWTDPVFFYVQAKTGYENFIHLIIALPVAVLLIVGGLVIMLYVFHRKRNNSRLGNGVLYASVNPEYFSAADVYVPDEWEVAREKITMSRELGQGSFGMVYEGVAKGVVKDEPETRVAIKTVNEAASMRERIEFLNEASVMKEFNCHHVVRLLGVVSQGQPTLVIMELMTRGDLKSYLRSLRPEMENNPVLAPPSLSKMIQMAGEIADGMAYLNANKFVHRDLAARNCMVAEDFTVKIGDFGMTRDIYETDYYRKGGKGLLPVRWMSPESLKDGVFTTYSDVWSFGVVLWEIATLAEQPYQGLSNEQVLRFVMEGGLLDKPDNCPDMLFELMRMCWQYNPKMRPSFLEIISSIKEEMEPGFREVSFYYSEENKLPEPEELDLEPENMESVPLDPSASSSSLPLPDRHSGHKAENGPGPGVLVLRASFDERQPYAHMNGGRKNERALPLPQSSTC

A word on the inhibition: it is the percentage by which the read-out fell short of the control. As for `CCOC(=O)c1c[nH]c2c(=O)[nH]c3ccccc3c12` [Compound 1, 4-Oxo-4,5-dihydro-3H-pyrrolo[2,3-c]quinoline-1-ethyl carboxylate], the inhibition at 20 µM stood at 16% in [1] (setting [15]); 17% in [2] (setting [15]); 97% in test [3] (setting [16]); 86% in [4] (setting [15]); 82% in test [5] (setting [16]); 91% in test [6] (setting [15]). The inhibition at 20 µM in test [7] (setting [16]) worked out at 42%; in test [8] (setting [15]), 1%; in [9] (setting [15]), 13%; in test [10] (setting [15]) it was 8%.

As to `CCOC(=O)c1c[nH]c2c(=O)[nH]c3ccc(S(=O)(=O)Nc4ccc(F)cc4)cc3c12` [Compound 12, 8-(4-Fluorophenylsulfamoyl)-4-oxo-4,5-dihydro-3H-pyrrolo[2,3-c]quinoline-1-ethyl carboxylate], the inhibition at 10 µM in [1] (setting [17]) amounted to 94%; in test [2] (setting [17]) it was 79%; in test [3] (setting [18]), 12%; in test [4] (setting [17]) it was 91%; in [5] (setting [18]), 91%; in test [6] (setting [17]) it was 51%. The inhibition at 10 µM amounted to 22% in test [11] (setting [17]); 0% in [7] (setting [18]); 3% in test [8] (setting [17]); 0% in test [9] (setting [17]); 17% in [10] (setting [17]).

As a reminder, the IC50 is the concentration that inhibits the measured activity by half. Low values mean greater potency, high ones weaker potency. For the compound `CCOC(=O)c1c[nH]c2c(=O)[nH]c3ccc(-c4cccc(S(C)(=O)=O)c4)cc3c12` [Compound 238, 8-(3-Methanesulfonyl-phenyl)-4-oxo-4,5-dihydro-3H-pyrrolo[2,3-c]quinoline-1-ethyl carboxylate], the inhibition at 1 µM is 24% in test [1] (setting [19]); 3% in [2] (compound 1 μM, ATP (45), read-out: % inhibition at 1 μMol); 7% in [4] (setting [20]); 51% in [12]; 0% in [6] (setting [20]); 0% in [11] (setting [19]). For the same compound, the inhibition at 1 µM in test [8] (compound 1 μM, ATP (155), read-out: % inhibition at 1 μMol) was found to be 0%; in test [9] (compound 1 μM, ATP (120), read-out: % inhibition at 1 μMol) it was 0%; in test [10] (setting [19]), 5%. The IC50 in test [13] came to 0.5 µM; in test [14], 34 µM.
